Structures can show the parent of a compound that is named as a salt.

The target of the first data set is T1, HCV polymerase (Hepatitis C virus genotype 1b, UniProt P26663).
T1 construct: a region encoding NS5B (591 amino acids; J Virol 1991 Mar, 65(3), 1105-13) was amplified by PCR; 6 His (N); made in house; host or cells: Escherichia coli
T1 sequence (P26663 2420-3010): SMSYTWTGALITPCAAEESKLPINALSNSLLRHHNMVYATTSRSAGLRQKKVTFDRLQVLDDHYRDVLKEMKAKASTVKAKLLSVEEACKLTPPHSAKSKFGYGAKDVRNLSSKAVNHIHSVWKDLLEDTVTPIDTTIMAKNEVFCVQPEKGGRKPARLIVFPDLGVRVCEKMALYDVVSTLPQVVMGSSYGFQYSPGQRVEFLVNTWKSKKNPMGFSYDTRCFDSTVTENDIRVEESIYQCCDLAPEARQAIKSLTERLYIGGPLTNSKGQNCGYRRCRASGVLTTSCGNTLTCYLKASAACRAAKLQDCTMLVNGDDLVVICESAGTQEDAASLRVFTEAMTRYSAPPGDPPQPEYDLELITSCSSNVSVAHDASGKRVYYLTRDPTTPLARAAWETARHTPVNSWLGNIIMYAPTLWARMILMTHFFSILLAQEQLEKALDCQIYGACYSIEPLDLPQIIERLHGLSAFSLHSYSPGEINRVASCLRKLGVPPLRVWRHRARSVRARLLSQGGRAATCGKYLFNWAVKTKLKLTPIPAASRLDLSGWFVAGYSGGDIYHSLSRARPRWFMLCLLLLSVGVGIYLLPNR
Description: biochemical. The following applies: read-out: HCV polymerase inhibitory activity IC50.
For `O=C(O)c1ccc2c(c1)nc(-c1ccc(Oc3cccc(Br)c3)cc1)n2C1CCCCC1` [Example 2, 2-[4-(3-bromophenoxy)phenyl]-1-cyclohexylbenzimidazole-5-carboxylic acid], the IC50 was 79 nM.
On the same count and under the same terms, under `COc1ccc(-c2ccc(Cl)cc2)c(COc2ccc(-c3nc4cc(C(=O)O)ccc4n3C3CCCCC3)cc2)c1` [Example 9, 2-{4-[2-(4-chlorophenyl)-5-methoxybenzyloxy]phenyl}-1-cyclohexylbenzimidazole-5-carboxylic acid] stands 19 nM; under `Cc1nc(-c2ccc(F)cc2)c(COc2ccc(-c3nc4cc(C(=O)O)ccc4n3C3CCCCC3)cc2)s1` [Example 17, 1-cyclohexyl-2-{4-[{4-(4-fluorophenyl)-2-methyl-5-thiazolyl}methoxy]phenyl}benzimidazole-5-carboxylic acid], 47 nM.
On the same count and under the same terms, under `O=C(O)c1ccc2c(c1)nc(-c1ccc(OC(c3cccc(F)c3)c3cccc(F)c3)cc1F)n2C1CCCCC1` [Example 20, 2-{4-(bis[3-fluorophenyl]methoxy)-2-fluorophenyl}-1-cyclohexylbenzimidazole-5-carboxylic acid] stands 42 nM; under `O=C(O)c1ccc2c(c1)nc(-c1ccc(Oc3cccc(-c4cccc(Cl)c4)c3)cc1)n2C1CCCCC1` [Example 26, 2-{4-[3-(3-chlorophenyl)phenoxy]phenyl}-1-cyclohexylbenzimidazole-5-carboxylic acid], 33 nM; under `CC(C)C(=O)N(C)c1ccc(-c2ccc(Cl)cc2)c(COc2ccc(-c3nc4cc(C(=O)O)ccc4n3C3CCCCC3)c(F)c2)c1` [Example 451, 2-[4-{2-(4-chlorophenyl)-5-(N-isopropylcarbonyl-N-methylamino)benzyloxy}-2-fluorophenyl]-1-cyclohexylbenzimidazole-5-carboxylic acid hydrochloride], 31 nM.
With `CC(C)C(=O)Nc1ccc(-c2ccc(Cl)cc2)c(COc2ccc(-c3nc4cc(C(=O)O)ccc4n3C3CCCCC3)c(F)c2)c1` [Example 452, 2-[4-{2-(4-chlorophenyl)-5-(isopropylcarbonylamino)benzyloxy}-2-fluorophenyl]-1-cyclohexylbenzimidazole-5-carboxylic acid hydrochloride], the IC50 amounted to 28 nM.
Consider `O=C(O)c1ccc2c(c1)nc(-c1ccc(OCc3cc(N4CCCC4=O)c(F)cc3-c3ccc(Cl)cc3)cc1F)n2C1CCCCC1` [Example 454, 2-[4-{2-(4-chlorophenyl)-4-fluoro-5-(2-oxopyrrolidin-1-yl)benzyloxy}-2-fluorophenyl]-1-cyclohexylbenzimidazole-5-carboxylic acid hydrochloride], for which the IC50 amounted to 13 nM.
For `CS(=O)(=O)Nc1ccc(-c2ccc(Cl)cc2)c(COc2ccc(-c3nc4cc(C(=O)O)ccc4n3C3CCCCC3)c(F)c2)c1` [Example 455, 2-[4-{2-(4-chlorophenyl)-5-(methylsulfonylamino)benzyloxy}-2-fluorophenyl]-1-cyclohexylbenzimidazole-5-carboxylic acid hydrochloride], the IC50 was 15 nM.
In the case of `CN(c1ccc(-c2ccc(Cl)cc2)c(COc2ccc(-c3nc4cc(C(=O)O)ccc4n3C3CCCCC3)c(F)c2)c1)S(C)(=O)=O` [Example 456, 2-[4-{2-(4-chlorophenyl)-5-[N-methyl-N-(methylsulfonyl)amino]benzyloxy}-2-fluorophenyl]-1-cyclohexylbenzimidazole-5-carboxylic acid hydrochloride], the IC50 came out at 17 nM.
For the compound `O=C(O)c1ccc2c(c1)nc(-c1ccc(OCc3nc(N4CCCC4=O)ccc3-c3ccc(Cl)cc3)cc1F)n2C1CCCCC1` [Example 457, 2-[4-{[3-(4-chlorophenyl)-6-(2-oxopyrrolidin-1-yl)pyridin-2-yl]methyloxy}-2-fluorophenyl]-1-cyclohexylbenzimidazole-5-carboxylic acid hydrochloride], the IC50 is 15 nM.
Consider `CC(=O)Nc1ccc(-c2ccc(Cl)cc2)c(COc2ccc(-c3nc4cc(C(=O)O)ccc4n3C3CCCCC3)c(F)c2)c1` [Example 458, 2-[4-{2-(4-chlorophenyl)-5-(acetylamino)benzyloxy}-2-fluorophenyl]-1-cyclohexylbenzimidazole-5-carboxylic acid hydrochloride], for which the IC50 worked out at 15 nM.
Turning to `CCCN(C(C)=O)c1ccc(-c2ccc(Cl)cc2)c(COc2ccc(-c3nc4cc(C(=O)O)ccc4n3C3CCCCC3)c(F)c2)c1` [Example 460, 2-[4-{2-(4-chlorophenyl)-5-(N-acetyl-N-propylamino)benzyloxy}-2-fluorophenyl]-1-cyclohexylbenzimidazole-5-carboxylic acid hydrochloride], the IC50 is 17 nM.
Turning to `CCN(c1ccc(-c2ccc(Cl)cc2)c(COc2ccc(-c3nc4cc(C(=O)O)ccc4n3C3CCCCC3)c(F)c2)c1)S(C)(=O)=O` [Example 461, 2-[4-{2-(4-chlorophenyl)-5-[N-ethyl-N-(methylsulfonyl)amino]-benzyloxy}-2-fluorophenyl]-1-cyclohexylbenzimidazole-5-carboxylic acid hydrochloride], the IC50 was 21 nM.
With `CCCN(c1ccc(-c2ccc(Cl)cc2)c(COc2ccc(-c3nc4cc(C(=O)O)ccc4n3C3CCCCC3)c(F)c2)c1)S(C)(=O)=O` [Example 462, 2-[4-{2-(4-chlorophenyl)-5-[N-(methylsulfonyl)-N-propylamino]benzyloxy}-2-fluorophenyl]-1-cyclohexylbenzimidazole-5-carboxylic acid hydrochloride], the IC50 turned out to be 28 nM.
In the case of `CC(=O)N(C)c1ccc(-c2ccc(Cl)cc2)c(COc2ccc(-c3nc4cc(C(=O)O)ccc4n3C3CCCCC3)c(F)c2)c1` [Example 463, 2-[4-{2-(4-chlorophenyl)-5-(N-acetyl-N-methylamino)benzyloxy}-2-fluorophenyl]-1-cyclohexylbenzimidazole-5-carboxylic acid hydrochloride], the IC50 came out at 26 nM.
On the same count and under the same terms, under `CCS(=O)(=O)N(C)c1ccc(-c2ccc(Cl)cc2)c(COc2ccc(-c3nc4cc(C(=O)O)ccc4n3C3CCCCC3)c(F)c2)c1` [Example 464, 2-[4-{2-(4-chlorophenyl)-5-[N-(ethylsulfonyl)-N-methylamino]-benzyloxy}-2-fluorophenyl]-1-cyclohexylbenzimidazole-5-carboxylic acid hydrochloride] stands 30 nM; under `CCN(c1ccc(-c2ccc(Cl)cc2)c(COc2ccc(-c3nc4cc(C(=O)O)ccc4n3C3CCCCC3)c(F)c2)c1)S(=O)(=O)CC` [Example 465, 2-[4-{2-(4-chlorophenyl)-5-[N-ethyl-N-(ethylsulfonyl)amino]-benzyloxy}-2-fluorophenyl]-1-cyclohexylbenzimidazole-5-carboxylic acid hydrochloride], 33 nM; under `CCC(=O)N(C)c1ccc(-c2ccc(Cl)cc2)c(COc2ccc(-c3nc4cc(C(=O)O)ccc4n3C3CCCCC3)c(F)c2)c1` [Example 466, 2-[4-{2-(4-chlorophenyl)-5-[N-(ethylcarbonyl)-N-methylamino]-benzyloxy}-2-fluorophenyl]-1-cyclohexylbenzimidazole-5-carboxylic acid hydrochloride], 23 nM.
Turning to `CCC(=O)N(CC)c1ccc(-c2ccc(Cl)cc2)c(COc2ccc(-c3nc4cc(C(=O)O)ccc4n3C3CCCCC3)c(F)c2)c1` [Example 467, 2-[4-{2-(4-chlorophenyl)-5-[N-ethyl-N-(ethylcarbonyl)amino]-benzyloxy}-2-fluorophenyl]-1-cyclohexylbenzimidazole-5-carboxylic acid hydrochloride], the IC50 was 32 nM.
Consider `COc1ccc(-c2ccc(Cl)cc2)c(COc2ccc(-c3nc4cc(C(=O)O)ccc4n3C3CCCCC3)c(F)c2)c1` [Example 468, 2-[4-{2-(4-chlorophenyl)-5-methoxybenzyloxy}-2-fluorophenyl]-1-cyclohexylbenzimidazole-5-carboxylic acid], for which the IC50 is 28 nM.
On to `CC(=O)N(c1ccc(-c2ccc(Cl)cc2)c(COc2ccc(-c3nc4cc(C(=O)O)ccc4n3C3CCCCC3)c(F)c2)c1)C(C)C` [Example 469, 2-[4-{2-(4-chlorophenyl)-5-(N-acetyl-N-isopropylamino)-benzyloxy}-2-fluorophenyl]-1-cyclohexylbenzimidazole-5-carboxylic acid hydrochloride], for which the IC50 stood at 24 nM.
For `COc1ccc(-c2ccc(Cl)cc2)c(COc2ccc(-c3cc4cc(C(=O)O)ccc4n3C3CCCCC3)cc2)c1` [Example 502, 2-{4-[2-(4-chlorophenyl)-5-methoxybenzyloxy]phenyl}-1-cyclohexyl-1H-indole-5-carboxylate acid], the IC50 was determined as 24 nM.
Consider `O=C(O)c1ccc2c(c1)cc(-c1ccc(OCc3ccccc3)cc1)n2C1CCCC1` [Example 503, 2-(4-benzyloxyphenyl)-1-cyclopentyl-1H-indole-5-carboxylic acid], for which the IC50 came to 196 nM.
`CCOC(=O)c1ccn2c(C3CCCCC3)c(-c3ccc(OCc4ccccc4)cc3)nc2c1` [Example 601, ethyl 2-(4-benzyloxyphenyl)-3-cyclohexylimidazo-[1,2-a]pyridine-7-carboxylate]: the IC50 was 320 nM.
Turning to `COc1ccc(-c2ccc(Cl)cc2)c(COc2ccc(-c3nc4cc(C(=O)O)cnc4n3C3CCCCC3)cc2)c1` [Example 701, 2-{4-[2-(4-chlorophenyl)-5-methoxybenzyloxy]phenyl}-3-cyclohexyl-3H-imidazo[4,5-b]pyridine-6-carboxylic acid], the IC50 was determined as 52 nM.

Test system in another data set: not given
Assay: not given
Settings: not given
Compound `NC(=O)c1ccc2c(c1)nc(-c1ccc(OCc3ccccc3)cc1)n2C1CCCC1` yielded a melting point of 232 to 233 °C.
As to `Cl.O=C(O)c1ccc2c(c1)nc(-c1ccc(OCc3cc(N4CCCC4=O)ccc3-c3ccc(Cl)cc3)cc1F)n2C1CCCCC1`, the melting point fell in the range of 243 to 246 °C.
Compound `O=C(O)c1ccc2c(c1)nc(-c1ccc(Oc3cccc(Br)c3)cc1)n2C1CCCCC1` [Example 2, 2-[4-(3-bromophenoxy)phenyl]-1-cyclohexylbenzimidazole-5-carboxylic acid] returned a melting point of 255 to 256 °C.
As to `O=C(O)c1ccc2c(c1)nc(-c1ccc(OCc3cc(Cl)ccc3-c3ccc(Cl)cc3)cc1)n2C1CCCCC1` [Example 6], the melting point is 243 to 244 °C.
The same measure, in the same setting: then `COc1ccc(-c2ccc(Cl)cc2)c(COc2ccc(-c3nc4cc(C(=O)O)ccc4n3C3CCCCC3)cc2)c1` [Example 9, 2-{4-[2-(4-chlorophenyl)-5-methoxybenzyloxy]phenyl}-1-cyclohexylbenzimidazole-5-carboxylic acid], with 248 to 249 °C.
`Cc1nc(-c2ccc(F)cc2)c(COc2ccc(-c3nc4cc(C(=O)O)ccc4n3C3CCCCC3)cc2)s1` [Example 17, 1-cyclohexyl-2-{4-[{4-(4-fluorophenyl)-2-methyl-5-thiazolyl}methoxy]phenyl}benzimidazole-5-carboxylic acid] yielded a melting point of 196 to 198 °C.
Compound `O=C(O)c1ccc2c(c1)nc(-c1ccc(OC(c3cccc(F)c3)c3cccc(F)c3)cc1F)n2C1CCCCC1` [Example 20, 2-{4-(bis[3-fluorophenyl]methoxy)-2-fluorophenyl}-1-cyclohexylbenzimidazole-5-carboxylic acid] gave a melting point of 242 to 243 °C.
Compound `O=C(O)c1ccc2c(c1)nc(-c1ccc(Oc3cccc(-c4cccc(Cl)c4)c3)cc1)n2C1CCCCC1` [Example 26, 2-{4-[3-(3-chlorophenyl)phenoxy]phenyl}-1-cyclohexylbenzimidazole-5-carboxylic acid] yielded a melting point of 253 to 254 °C.
